This assay has as its target Protein phosphatase methylesterase 1 (Homo sapiens) (UniProt Q9Y570). As to the kind of experiment: inhibition of PME-1 probe labeling – gel-based ABPP, IC50, set 1, late-stage follow-up (AID 463130). The note with it: fluorophosphonate probe labeling.

Chain of Protein phosphatase methylesterase 1 (Homo sapiens) (Q9Y570 whole entry, looked up): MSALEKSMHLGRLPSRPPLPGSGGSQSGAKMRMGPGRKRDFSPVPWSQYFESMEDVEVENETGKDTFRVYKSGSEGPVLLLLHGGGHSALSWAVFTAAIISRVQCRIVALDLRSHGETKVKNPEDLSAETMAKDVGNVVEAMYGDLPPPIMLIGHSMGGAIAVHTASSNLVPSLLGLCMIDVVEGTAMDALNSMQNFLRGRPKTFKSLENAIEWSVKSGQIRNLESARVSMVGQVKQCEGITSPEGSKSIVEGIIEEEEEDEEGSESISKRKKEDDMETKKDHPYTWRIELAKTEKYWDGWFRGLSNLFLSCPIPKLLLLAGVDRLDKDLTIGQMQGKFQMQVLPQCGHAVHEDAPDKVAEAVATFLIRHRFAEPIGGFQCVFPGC

In general, IC50 refers to the concentration that gives 50% inhibition. `COC(=O)N1C(=O)[C@](c2ccccc2)(C(C)C)N1C(=O)OC`: the IC50 is 195 nM.

For the origin of these results see PubChem BioAssay AID463130 (The Scripps Research Institute Molecular Screening Center, 2010).
